Measured values from paper PMC12186255, “Discovery and Characterization of Small Molecule Inhibitors Targeting Exonuclease 1 for Homologous Recombination-Deficient Cancer Therapy” (ACS Chemical Biology, 2025).
Entries after “also recorded” stand apart in the source; their conditions may differ.

Experiments:
[1] = system: MDA-MB-436 (BRCA1−) and MDA-MB-436 (BRCA1+) cells; experiment: Annexin V apoptosis assay; assay type: cell-based, human; settings: 5 days of treatment
Protocol: After 24 h of incubation, testing compounds were added to cells at final concentrations of 50, 25, 12, and 5 μM using the Echo Liquid Handler (Beckman). Subsequently, 10 μL of the NIR-labeled Annexin V apoptosis reagent (Cat. #4768, Sartorius, Germany) was added to each well at a 1:200 final dilution. The plates were then transferred to the Incucyte Live-Cell Analysis System for real-time apoptosis monitoring over a 5 day period. Imaging was conducted using a 10× objective with phase-contrast and near-infrared (NIR) fluorescent channels, capturing scans every 2 h. Image analysis was performed with the Incucyte software, and the total NIR fluorescence intensity was quantified to evaluate the apoptosis.

[2] = system: MDA-MB-436 (BRCA1−) and MDA-MB-436 (BRCA1+) cells; experiment: In vitro cell survival assay (cell counting); assay type: cell-based, human; settings: 1-50 μM F684, 5 days
Protocol: For this assay, 10,000 cells were seeded per well in a 24-well plate and incubated in a complete culture medium containing DMSO or the EXO1i of interest at 37 °C with 5% CO2. The medium was refreshed every 3 to 4 days by replacing it with a fresh medium containing DMSO or EXO1i. After 5 days, the cells were trypsinized, and the survival curve was generated by manual cell counting.

EXO1 D225A = molecular target: T1, EXO1 D225A (Homo sapiens, UniProt Q9UQ84, D225A); experiment: In vitro exonuclease activity of mutant with inhibitors; assay type: biochemical; settings: EXO1 25 nM, DNA substrate 250 nM; C200 0-5 μM
T1 construct: The N-terminal domain of human EXO1 (hEXO1) (residues 1–345) was cloned into the pET28b vector; made in house; host or cells: E. coli BL21(DE3) and Rosetta 2(DE3)
T1 sequence (Q9UQ84 1-345 D225A): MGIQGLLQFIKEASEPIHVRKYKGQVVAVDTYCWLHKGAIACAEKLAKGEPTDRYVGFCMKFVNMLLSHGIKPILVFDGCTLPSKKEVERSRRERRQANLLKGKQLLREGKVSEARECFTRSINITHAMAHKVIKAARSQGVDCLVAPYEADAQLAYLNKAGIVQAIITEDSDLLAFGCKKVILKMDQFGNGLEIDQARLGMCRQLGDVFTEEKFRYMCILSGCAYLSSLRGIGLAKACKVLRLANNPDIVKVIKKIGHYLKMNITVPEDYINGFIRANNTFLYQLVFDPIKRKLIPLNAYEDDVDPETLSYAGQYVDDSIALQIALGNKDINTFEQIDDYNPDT
Protocol: (§1) Simultaneously, we tested the effect of each point mutation on the in vitro exonuclease activity. Most mutations in site 1 result in some loss of enzymatic activity compared to WT EXO1 (Figure S13; WT:Figure S13a), particularly K85A and D225A (Figure S13b,f). […] However, at concentrations of 20 and 40 μM, the mutants (K85A and R92A) behaved more like WT (Figure b).
(§2) In both panels a and b, DMSO without inhibitors was used as a control, and its relative binding activity was set equal to 1.0. The EXO1 enzyme concentration was 25 nM, and the DNA substrate concentration was 250 nM. The values shown are the mean ± S.D. of three independent experiments.
(§3) The N-terminal domain of human EXO1 (hEXO1) (residues 1–345) was cloned into the pET28b vector. The following mutations were introduced via site-directed mutagenesis based on the findings of molecular docking analysis: K85A, E89A, R92A, I125A, D225A, K292A, and K294A (oligonucleotide primers listed in Table S1) following the established protocol.

EXO1 E89A = molecular target: T2, EXO1 E89A (Homo sapiens, UniProt Q9UQ84, E89A); experiment: as above; assay type: biochemical; settings: EXO1 25 nM, DNA substrate 250 nM
T2 construct: The N-terminal domain of human EXO1 (hEXO1) (residues 1–345) was cloned into the pET28b vector; made in house; host or cells: E. coli BL21(DE3) and Rosetta 2(DE3)
T2 sequence (Q9UQ84 1-345 E89A): as the sequence (Q9UQ84 1-345 D225A) above, with E89A, A225D counted along it
Protocol: as §1, §2, §3

EXO1 I125A = molecular target: T3, EXO1 I125A (Homo sapiens, UniProt Q9UQ84, I125A); experiment: as above; assay type: biochemical; settings: EXO1 25 nM, DNA substrate 250 nM
T3 construct: The N-terminal domain of human EXO1 (hEXO1) (residues 1–345) was cloned into the pET28b vector; made in house; host or cells: E. coli BL21(DE3) and Rosetta 2(DE3)
T3 sequence (Q9UQ84 1-345 I125A): as the sequence (Q9UQ84 1-345 D225A) above, with I125A, A225D counted along it
Protocol: as §1, §2, §3

SF-295 = experiment: Cell line drug profiling, CellTiter Glo; assay type: cell-based, human; settings: Homo sapiens, SF-295, 72 h
Protocol: We tested the cytotoxicity of representative compounds from the seven EXO1i scaffolds against a subset of the NCI-60 cell line panel along with three additional pancreatic cell lines (FG, AsPC1, and CaPan2). In general, cells were seeded in 384-well tissue culture-treated plates overnight and treated with various concentrations of each hit compound (a serial 3-fold dilution from 50 μM for all tested hits). Each concentration was performed in duplicate. Cell viability was then measured by CellTiter Glo (Promega) after 72 h of treatment.

Structure (SMILES)	apoptosis (Annexin V fluorescence intensity), BRCA1− vs BRCA1+ [1]	cell killing (survival), BRCA1– vs BRCA1+ cells [2]	inhibitory activity against EXO1 D225A mutant vs WT (EXO1 D225A)	inhibitory activity against EXO1 E89A mutant vs WT (EXO1 E89A)	inhibitory activity against EXO1 I125A mutant vs WT (EXO1 I125A)	IC50 (SF-295) [µM]
Cc1cccc(N2CCN(c3ccc(NS(=O)(=O)c4ccccc4)c(C(=O)O)c3)CC2)c1C [F684]	substantially stronger killing effect in a BRCA1– context	more effective in killing BRCA1– cells compared to BRCA1+ cells	–	–	–	–
COC(=O)c1nc(-c2ccc(OC)cc2)nc(O)c1O [C200]	–	–	partially lost its inhibitory effect; also recorded: abolished	did not have a significant	did not have a significant	> 50
